Data published in ChEMBL document CHEMBL1201862, “PubChem BioAssay data set” (2004).
The source made the active and inactive calls.

Columns and labels:
Mu-type opioid receptor = Mu-type opioid receptor (Homo sapiens, UniProt P35372); assay: HTS Image-Based Screen for Agonists of the MOR Receptor. [Related pubchem assays (depositor defined):AID1777, AID1785, AID1786, AID2133]; format: functional;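 note: imaging of beta-arrestin GFP recruitment into spots after receptor activation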
Beta-galactosidase [1] = target: T1, Beta-galactosidase (Escherichia coli, UniProt Q8VNN2); format: functional
T1 sequence (Q8VNN2 whole entry): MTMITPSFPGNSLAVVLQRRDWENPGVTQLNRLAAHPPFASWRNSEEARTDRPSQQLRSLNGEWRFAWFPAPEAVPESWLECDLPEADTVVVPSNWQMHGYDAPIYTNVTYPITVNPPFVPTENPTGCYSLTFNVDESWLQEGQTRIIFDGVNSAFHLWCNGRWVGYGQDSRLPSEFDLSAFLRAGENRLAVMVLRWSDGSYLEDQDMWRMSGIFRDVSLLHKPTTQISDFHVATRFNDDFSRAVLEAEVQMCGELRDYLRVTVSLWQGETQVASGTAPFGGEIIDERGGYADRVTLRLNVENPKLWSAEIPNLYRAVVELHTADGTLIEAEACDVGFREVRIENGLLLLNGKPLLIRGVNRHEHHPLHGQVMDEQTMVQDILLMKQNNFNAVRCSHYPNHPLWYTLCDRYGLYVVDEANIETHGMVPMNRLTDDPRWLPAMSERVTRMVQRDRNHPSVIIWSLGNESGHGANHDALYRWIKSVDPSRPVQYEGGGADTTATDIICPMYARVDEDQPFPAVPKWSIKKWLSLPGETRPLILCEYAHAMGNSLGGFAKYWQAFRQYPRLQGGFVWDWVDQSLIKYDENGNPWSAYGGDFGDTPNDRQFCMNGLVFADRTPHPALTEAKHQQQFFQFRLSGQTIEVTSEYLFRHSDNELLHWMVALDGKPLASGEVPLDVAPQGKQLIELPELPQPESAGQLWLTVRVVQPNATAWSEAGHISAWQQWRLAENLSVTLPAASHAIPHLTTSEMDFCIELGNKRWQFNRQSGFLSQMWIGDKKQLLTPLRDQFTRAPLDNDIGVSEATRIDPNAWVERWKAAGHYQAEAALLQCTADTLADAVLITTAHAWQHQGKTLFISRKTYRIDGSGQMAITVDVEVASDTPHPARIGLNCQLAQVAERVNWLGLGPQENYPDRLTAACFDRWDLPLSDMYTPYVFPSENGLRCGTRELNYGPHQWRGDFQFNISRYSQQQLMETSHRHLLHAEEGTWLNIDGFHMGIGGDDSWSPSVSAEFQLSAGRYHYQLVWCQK

[2] = target: T2, Kappa-type opioid receptor (Homo sapiens, UniProt P41145); format: functional
T2 sequence (P41145 whole entry): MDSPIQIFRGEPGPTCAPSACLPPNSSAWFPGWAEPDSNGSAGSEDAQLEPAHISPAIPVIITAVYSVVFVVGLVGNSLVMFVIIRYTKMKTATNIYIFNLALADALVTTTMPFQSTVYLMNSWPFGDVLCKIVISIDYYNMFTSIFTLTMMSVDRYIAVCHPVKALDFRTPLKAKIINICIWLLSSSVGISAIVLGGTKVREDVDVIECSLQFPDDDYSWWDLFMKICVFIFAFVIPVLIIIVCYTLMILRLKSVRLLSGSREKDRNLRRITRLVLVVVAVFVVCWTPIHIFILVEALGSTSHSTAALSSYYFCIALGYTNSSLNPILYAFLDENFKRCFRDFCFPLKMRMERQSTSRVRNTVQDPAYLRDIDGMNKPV

[3] = target: T3, Delta-type opioid receptor (Homo sapiens, UniProt P41143); assay: HTS Image-Based Screen for Agonists of the DOR Receptor. [Related pubchem assays (depositor defined):AID1777, AID1786, AID2133]; format: functional
T3 sequence (P41143 whole entry): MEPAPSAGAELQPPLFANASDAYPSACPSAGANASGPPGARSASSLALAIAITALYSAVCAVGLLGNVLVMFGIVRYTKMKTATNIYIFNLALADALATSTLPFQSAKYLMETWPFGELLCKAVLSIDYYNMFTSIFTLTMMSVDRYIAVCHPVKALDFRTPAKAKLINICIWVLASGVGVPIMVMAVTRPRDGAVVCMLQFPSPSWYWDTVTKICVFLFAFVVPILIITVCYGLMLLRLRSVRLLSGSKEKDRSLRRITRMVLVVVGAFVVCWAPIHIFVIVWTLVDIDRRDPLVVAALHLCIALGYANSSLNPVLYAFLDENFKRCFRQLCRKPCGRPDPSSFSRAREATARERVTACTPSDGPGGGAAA

[4] = target: T2, Kappa-type opioid receptor; format: functional; remark: listed apart in the source
[5] = target: T3, Delta-type opioid receptor; assay: HTS Image-Based Screen for Antagonists of the DOR Receptor. [Related pubchem assays (depositor defined):AID1777, AID1785, AID1786, AID2133]; format: functional
[6] = target: G-protein coupled receptor 55 (Homo sapiens, UniProt Q9Y2T6); assay: blockers of GPR55 signalling, imaged – imaging, image-based, counter-screen for GPR35 antagonist project, SAR follow-up (AID 2397); format: functional
Chain of G-protein coupled receptor 55 (Q9Y2T6 whole entry): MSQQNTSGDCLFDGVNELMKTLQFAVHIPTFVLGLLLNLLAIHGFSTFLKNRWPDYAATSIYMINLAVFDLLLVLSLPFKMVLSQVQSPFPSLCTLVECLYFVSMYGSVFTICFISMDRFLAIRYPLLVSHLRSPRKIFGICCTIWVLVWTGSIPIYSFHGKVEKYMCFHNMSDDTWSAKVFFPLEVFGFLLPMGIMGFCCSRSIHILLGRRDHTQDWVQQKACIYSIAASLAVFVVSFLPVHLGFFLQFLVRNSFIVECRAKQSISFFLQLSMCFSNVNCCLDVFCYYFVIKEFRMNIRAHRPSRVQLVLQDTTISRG

Cytochrome P450 3A4 = Cytochrome P450 3A4 (Homo sapiens, UniProt P08684);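 note: CYP3A4 tested as one member of a cytochrome P450 panel screen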
Chain of Cytochrome P450 3A4 (P08684 whole entry): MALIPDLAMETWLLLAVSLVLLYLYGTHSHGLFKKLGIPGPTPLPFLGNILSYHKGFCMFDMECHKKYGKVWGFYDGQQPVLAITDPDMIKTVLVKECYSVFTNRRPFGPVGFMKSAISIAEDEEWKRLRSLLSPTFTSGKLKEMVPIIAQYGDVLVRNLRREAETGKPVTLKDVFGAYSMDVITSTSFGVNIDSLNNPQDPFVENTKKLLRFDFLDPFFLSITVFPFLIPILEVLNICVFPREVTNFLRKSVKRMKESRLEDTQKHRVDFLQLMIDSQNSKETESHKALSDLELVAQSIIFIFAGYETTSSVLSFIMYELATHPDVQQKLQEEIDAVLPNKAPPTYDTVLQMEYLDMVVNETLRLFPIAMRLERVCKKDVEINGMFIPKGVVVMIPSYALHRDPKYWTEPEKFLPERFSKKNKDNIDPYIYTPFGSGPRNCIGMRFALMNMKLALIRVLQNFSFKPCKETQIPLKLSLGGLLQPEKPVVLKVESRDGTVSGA

Cytochrome P450 1A2 = target: T4, Cytochrome P450 1A2 (Homo sapiens, UniProt P05177);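 note: PubChem cytochrome P450 panel assay, CYP1A2 panel member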
T4 sequence (P05177 whole entry): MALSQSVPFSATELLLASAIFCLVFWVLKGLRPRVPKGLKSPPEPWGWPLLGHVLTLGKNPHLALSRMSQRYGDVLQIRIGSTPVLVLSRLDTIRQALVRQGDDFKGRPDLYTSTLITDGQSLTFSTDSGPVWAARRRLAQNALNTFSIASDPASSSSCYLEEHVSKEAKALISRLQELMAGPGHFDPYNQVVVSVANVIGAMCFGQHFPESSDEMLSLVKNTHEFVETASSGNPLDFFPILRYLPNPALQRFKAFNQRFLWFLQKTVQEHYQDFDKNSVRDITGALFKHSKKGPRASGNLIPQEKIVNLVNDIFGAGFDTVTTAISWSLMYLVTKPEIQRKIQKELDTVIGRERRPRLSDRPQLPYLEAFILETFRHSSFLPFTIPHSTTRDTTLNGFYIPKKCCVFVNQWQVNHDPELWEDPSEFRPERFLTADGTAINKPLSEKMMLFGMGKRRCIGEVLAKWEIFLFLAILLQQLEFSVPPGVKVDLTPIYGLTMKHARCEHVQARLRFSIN

Cytochrome P450 2C19 = Cytochrome P450 2C19 (Homo sapiens, UniProt P33261); assay: Cytochrome panel assay with activity outcomes. Panel member name: p450-cyp2c19 Compounds with AC50 equal or less than 10 uM are considered active; format: functional
Chain of Cytochrome P450 2C19 (P33261 whole entry): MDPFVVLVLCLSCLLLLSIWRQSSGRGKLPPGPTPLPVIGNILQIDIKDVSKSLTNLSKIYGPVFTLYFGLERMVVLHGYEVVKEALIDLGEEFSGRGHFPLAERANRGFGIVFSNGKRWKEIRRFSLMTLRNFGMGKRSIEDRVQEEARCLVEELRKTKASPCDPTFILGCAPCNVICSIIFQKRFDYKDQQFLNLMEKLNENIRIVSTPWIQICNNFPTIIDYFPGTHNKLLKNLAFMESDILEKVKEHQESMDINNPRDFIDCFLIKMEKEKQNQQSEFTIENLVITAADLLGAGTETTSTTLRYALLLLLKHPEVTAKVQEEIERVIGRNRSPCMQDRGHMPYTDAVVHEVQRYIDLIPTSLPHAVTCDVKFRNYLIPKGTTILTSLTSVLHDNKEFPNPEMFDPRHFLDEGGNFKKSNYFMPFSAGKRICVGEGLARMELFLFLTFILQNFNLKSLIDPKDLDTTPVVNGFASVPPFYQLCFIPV

[7] = MIN6 cell viability loss – mouse insulinoma, cytotoxicity control, dose response (AID 2122); format: functional;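 note: confirmatory high-throughput counterscreen run to flag cytotoxic compounds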
[8] = decrease of insulin promoter-GFP reporter – imaging, high-content screening, mouse beta cells (AID 1628); format: functional; settings: MIN6
[9] = target: T5, Mannose-6-phosphate isomerase (Homo sapiens, UniProt P34949); assay: MPI inhibition at elevated mannose 6-phosphate – biochemical, fluorescence intensity, high mannose 6-phosphate, primary screen (AID 1220)
T5 sequence (P34949 whole entry): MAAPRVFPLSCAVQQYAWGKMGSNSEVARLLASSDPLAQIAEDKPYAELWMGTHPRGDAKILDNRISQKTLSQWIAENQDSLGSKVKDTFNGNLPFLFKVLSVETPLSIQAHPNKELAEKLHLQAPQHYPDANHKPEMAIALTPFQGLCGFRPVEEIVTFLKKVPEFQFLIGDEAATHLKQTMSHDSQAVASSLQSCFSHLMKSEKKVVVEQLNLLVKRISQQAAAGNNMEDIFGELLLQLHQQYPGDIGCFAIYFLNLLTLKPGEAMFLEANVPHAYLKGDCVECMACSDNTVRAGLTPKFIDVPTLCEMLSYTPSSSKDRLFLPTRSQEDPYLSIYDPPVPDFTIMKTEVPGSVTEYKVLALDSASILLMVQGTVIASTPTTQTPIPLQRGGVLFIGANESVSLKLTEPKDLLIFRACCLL

[10] = target: Glucose-6-phosphate 1-dehydrogenase (Homo sapiens, UniProt P11413); assay: inhibition of Homo sapiens G6PD, dose series – biochemical, fluorescence, selectivity assay for P. falciparum G6PD inhibitor project, dose response (AID 504792); format: functional
Chain of Glucose-6-phosphate 1-dehydrogenase (P11413 whole entry): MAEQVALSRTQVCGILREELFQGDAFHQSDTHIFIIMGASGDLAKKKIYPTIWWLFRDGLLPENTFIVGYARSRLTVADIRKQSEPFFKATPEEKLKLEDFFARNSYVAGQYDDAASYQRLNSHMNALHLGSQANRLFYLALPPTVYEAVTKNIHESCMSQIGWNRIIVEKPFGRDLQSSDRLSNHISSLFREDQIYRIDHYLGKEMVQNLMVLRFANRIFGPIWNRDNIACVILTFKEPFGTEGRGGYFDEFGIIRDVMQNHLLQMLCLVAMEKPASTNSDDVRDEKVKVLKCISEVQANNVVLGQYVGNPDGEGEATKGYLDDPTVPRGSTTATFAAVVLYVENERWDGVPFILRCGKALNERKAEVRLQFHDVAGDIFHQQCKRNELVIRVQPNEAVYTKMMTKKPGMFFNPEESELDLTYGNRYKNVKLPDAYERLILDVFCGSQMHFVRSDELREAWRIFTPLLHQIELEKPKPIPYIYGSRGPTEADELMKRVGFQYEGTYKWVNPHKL

HEK293 [11] = assay: cells; format: functional, cell-based; settings: Homo sapiens
[12] = target: T6, Type-1 angiotensin II receptor (Homo sapiens, UniProt P30556); assay: antagonism of angiotensin II type 1 receptor – cell-based, uHTS hits, selectivity assay for APJ receptor antagonist project, dose response (AID 463214); format: functional;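 note: antagonist potency against angiotensin II stimulated AT1 response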
T6 sequence (P30556 whole entry): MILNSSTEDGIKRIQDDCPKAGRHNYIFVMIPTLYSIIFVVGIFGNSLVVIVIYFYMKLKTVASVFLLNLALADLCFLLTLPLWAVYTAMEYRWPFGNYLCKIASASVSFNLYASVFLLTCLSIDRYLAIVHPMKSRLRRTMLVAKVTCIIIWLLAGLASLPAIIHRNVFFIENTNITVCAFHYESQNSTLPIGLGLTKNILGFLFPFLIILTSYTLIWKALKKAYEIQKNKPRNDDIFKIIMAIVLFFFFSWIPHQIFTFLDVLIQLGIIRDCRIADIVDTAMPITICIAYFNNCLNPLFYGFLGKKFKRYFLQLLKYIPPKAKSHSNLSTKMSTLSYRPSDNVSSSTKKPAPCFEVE

HEK293 [13] = assay: cells; format: functional, cell-based; settings: Homo sapiens; remark: listed apart in the source
[14] = system: Streptococcus sp. 'group A'; assay: Streptococcus pyogenes SK(-)GAS viability under kanamycin – luminescence, BacTiterGlo, confirmation, counter-screen for streptokinase expression inhibitor project, dose response (AID 1900); format: functional, organism-based
Beta-galactosidase [15] = target: T1, Beta-galactosidase; assay: PubChem AID 485352; format: functional
HEK293 [16] = assay: NOD2 signaling inhibitors in MDP-stimulated cells, cell-based, uHTS, luminescence (AID 2001); format: functional; settings: Homo sapiens
Streptococcus = assay: GAS UMAA2166 growth inhibition – luminescence, BacTiterGlo, counter-screen for streptokinase expression inhibitor project, dose response (AID 1915); format: functional, organism-based;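 note: potency for reduction of bacterial viability or growth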
HEK293 [17] = assay: inhibition of NOD1-driven NF-kB reporter – cell-based, luminescence, uHTS, primary screen (AID 1578); format: functional; settings: Homo sapiens
[18] = target: T5, Mannose-6-phosphate isomerase; assay: phosphomannose isomerase inhibition – biochemical, fluorescence intensity, confirmation (AID 1535)
Phosphomannomutase 2 = Phosphomannomutase 2 (Homo sapiens, UniProt O15305); assay: Counter screen SAR assay for PMM2 inhibitors via a fluorescence intensity assay. [Related pubchem assays (depositor defined):AID1545, AID1574]
Chain of Phosphomannomutase 2 (O15305 whole entry): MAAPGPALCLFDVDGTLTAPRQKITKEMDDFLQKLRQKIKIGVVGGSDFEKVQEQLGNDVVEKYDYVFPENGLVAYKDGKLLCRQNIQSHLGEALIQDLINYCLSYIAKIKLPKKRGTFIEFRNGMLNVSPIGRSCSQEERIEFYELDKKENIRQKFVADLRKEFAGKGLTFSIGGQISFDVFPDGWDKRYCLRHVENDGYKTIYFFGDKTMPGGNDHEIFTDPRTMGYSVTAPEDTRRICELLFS

[19] = target: T7, Corticotropin-releasing factor receptor 2/Corticotropin-releasing factor-binding protein (Homo sapiens, UniProt P24387+Q13324); assay: Dose Response confirmation of uHTS hits for small molecule antagonists of the CRF-binding protein and CRF-R2 receptor complex.; format: functional; settings: read-out: IC50_Mean
T7 sequence (Q13324 whole entry): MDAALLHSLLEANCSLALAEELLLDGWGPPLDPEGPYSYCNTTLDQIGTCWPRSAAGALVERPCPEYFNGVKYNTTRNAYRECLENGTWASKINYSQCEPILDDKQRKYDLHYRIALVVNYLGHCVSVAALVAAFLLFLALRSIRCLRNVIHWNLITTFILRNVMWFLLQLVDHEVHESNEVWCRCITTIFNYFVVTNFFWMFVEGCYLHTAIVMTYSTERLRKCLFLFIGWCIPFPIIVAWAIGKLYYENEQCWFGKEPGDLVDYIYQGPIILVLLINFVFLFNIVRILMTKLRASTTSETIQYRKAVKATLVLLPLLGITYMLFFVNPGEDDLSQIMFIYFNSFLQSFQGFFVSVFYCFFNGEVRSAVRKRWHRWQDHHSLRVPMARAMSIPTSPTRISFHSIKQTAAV
T7 sequence (P24387 whole entry): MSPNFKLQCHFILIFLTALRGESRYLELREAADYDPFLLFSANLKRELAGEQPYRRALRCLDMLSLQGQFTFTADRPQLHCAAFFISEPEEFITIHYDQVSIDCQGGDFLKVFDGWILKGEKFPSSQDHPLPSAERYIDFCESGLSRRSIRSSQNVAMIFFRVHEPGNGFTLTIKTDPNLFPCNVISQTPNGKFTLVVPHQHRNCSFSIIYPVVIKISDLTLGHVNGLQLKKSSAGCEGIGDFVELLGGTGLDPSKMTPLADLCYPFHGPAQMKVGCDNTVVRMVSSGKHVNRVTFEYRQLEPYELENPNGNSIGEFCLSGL

[20] = blockers of CRF-binding protein–CRF-R2 complex – cell-based, uHTS hits, 384-well, dose response (AID 651639); format: functional, Homo sapiens; settings: read-out: IC50_Mean
[21] = target: T7, Corticotropin-releasing factor receptor 2/Corticotropin-releasing factor-binding protein; assay: activators of CRF receptor 2 with binding protein – uHTS hits, confirmation (AID 602473); format: functional; settings: read-out: EC50_Mean

Chain of Mu-type opioid receptor (P35372 whole entry): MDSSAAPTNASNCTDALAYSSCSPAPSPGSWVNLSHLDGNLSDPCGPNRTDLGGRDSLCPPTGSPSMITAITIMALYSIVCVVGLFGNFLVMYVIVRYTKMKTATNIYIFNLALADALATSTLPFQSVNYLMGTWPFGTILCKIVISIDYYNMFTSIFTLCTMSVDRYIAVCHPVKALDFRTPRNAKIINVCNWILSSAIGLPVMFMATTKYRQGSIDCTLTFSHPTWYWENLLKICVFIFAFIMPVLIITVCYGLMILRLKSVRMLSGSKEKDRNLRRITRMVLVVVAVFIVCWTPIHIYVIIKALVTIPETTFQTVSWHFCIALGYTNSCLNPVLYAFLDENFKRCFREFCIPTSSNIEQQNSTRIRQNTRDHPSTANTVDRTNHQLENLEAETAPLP

## CC(=O)Nc1ccc(NC(=O)C(C)OC(=O)c2ccccc2C(=O)c2ccc(Cl)c([N+](=O)[O-])c2)cc1 (stereo not drawn)
Mu-type opioid receptor
  EC50: > 32 µM (inactive)
Beta-galactosidase [1]
  EC50: > 31.5 µM (inactive)
[2]
  IC50: 8.15 µM (active)
[3]
  EC50: > 32 µM (inactive)
[4]
  IC50: 8.71 µM
[5]
  IC50: > 32 µM (inactive)

## Cc1ccc(C)c(OCCC(=O)NCCc2ccc(S(N)(=O)=O)cc2)c1
[6]
  IC50: > 32 µM (inactive)

## COc1ccccc1C(=O)N1CCN(c2ccccn2)CC1
Cytochrome P450 3A4
  AC50: inconclusive

## c1cncc(-c2cccnc2)c1
Cytochrome P450 1A2
  AC50: 15.8 µM (inconclusive)
Cytochrome P450 3A4
  AC50: inconclusive
Cytochrome P450 2C19
  AC50: inconclusive

## COc1ccc(OC)c(-c2csc(NC(=O)c3ccc(OCC4CCCO4)cc3)n2)c1 (stereo not drawn)
[7]
  IC50: 2.19 µM (active)
[8]
  IC50: 2.4 µM (active)

## COc1ccc(-n2c(=S)[nH]c3c(sc(=S)n3-c3ccccc3)c2=O)c(OC)c1
[9]
  IC50: 37.6 µM (active)
[10]
  IC50: > 80 µM (inactive)

## COc1cccc(/C=C/c2ccc3cccc(O)c3n2)c1OC
HEK293 [11]
  IC50: 10.6 µM (active)
Mu-type opioid receptor
  EC50: > 32 µM (inactive)
[12]
  IC50: 15.6 µM (active)
Beta-galactosidase [1]
  EC50: > 31.5 µM (inactive)
[2]
  IC50: > 31.5 µM (inactive)
HEK293 [13]
  IC50: > 20 µM (inactive)
[14]
  EC50: 1.68 µM (active)
Beta-galactosidase [15]
  EC50: > 40 µM (inactive)
[3]
  EC50: > 32 µM (inactive)
HEK293 [16]
  IC50: 5.45 µM (inactive)
Streptococcus
  EC50: 7.81 µM (active)
[4]
  IC50: > 32 µM
HEK293 [17]
  EC50: > 20 µM (inactive)
[5]
  IC50: > 32 µM (inactive)

## Clc1ccc(/N=c2\ssnc2Cl)cc1Cl
[18]
  IC50: 16.9 µM (active)
Phosphomannomutase 2
  IC50: 88.6 µM (active)

## Cc1cc(-n2sc3ccccc3c2=O)c2ccccc2n1
[18]
  IC50: > 50 µM (inactive)
Phosphomannomutase 2
  IC50: > 100 µM (inactive)

## c1ccc2c(c1)OCCOCCOCCOCCOCCOc1ccccc1OCCOCCOCCO2
[7]
  IC50: 5.48 µM (active)
[19]
  IC50: 2.76 µM (active)
[8]
  IC50: 2.89 µM (active)
[20]
  IC50: 10.4 µM (active)
[21]
  EC50: 12.5 µM (active)
